Measured values published in patent publication US20030186891A1, “Compositions and methods for treatment of vitamin D deficiency” (priority 2002, published 2003).

Assays:
24-hydroxylase mRNA = 24-hydroxylase mRNA expression in CL-8 cells; assay type: cell-based; details: 1α,25-dihydroxyvitamin D3 10^−9 M, 5 hours (FIG. 4)
Experimental: CL-8 cells were grown as above and the peptide of SEQ ID NO.1 was either not added to the cells, or added to the cells at a concentration of either 100 or 500 ng/ml. Cells were grown for a further 5 hours, and RNA was harvested using methods described above and expression levels of 24-hydroxylase were determined in each sample using methods described above. […]

1α-hydroxylase mRNA = 1α-hydroxylase mRNA expression in CL-8 cells (real-time quantitative PCR); assay type: cell-based, human
Experimental: Cell culture, RNA preparation and cDNA synthesis: CL-8 cells (1.6×10^6 cells) were placed in 60 mm culture dish, and cultured for 48 hours in 5% FCS D-MEM/HamF-12(1:1) medium. This medium was exchanged to FCS free, 0.5 mM Ca defined medium [D-MEM/HamF-12 (13:87), Insulin 5 μg/ml, Transferrin 5 μg/ml, Na2SeO3 5 ng/ml, T3 0.37 nM, EGF 2.5 ng/ml, Hydrocortisone 1 nM]. After 24 hours, the peptide of SEQ ID NO.1 (100 ng/ml or 500 ng/ml) or PTH 100 nM were added and cultured for 5 hours. After treatment, the total cellular contents of each well were used for RNA extraction and reverse transcription (RT). RNA was isolated using ISOGEN (Nippon Gene, Japan) according to the manufacturer's protocol. The purified RNA was redissolved in 10 μl RNase-free water and used for cDNA synthesis by RT. The RT was performed in a 20 μl reaction mixture containing 10 mM Tris buffer, pH8.3, 50 mM KCl, 5 mM MgCl2, 1 mM each of dATP, dGTP, dCTP and dTTP, 20 U of RNase inhibitor, 1 μM Reverse primer and 5 U of AMV reverse transcriptase. The reaction mixture was incubated at 30° C. for 10 min, 55° C. for 15 min, 95° C. for 5 min followed by 5° C. for 5 min.
Real-time quantitative PCR: mRNA was quantitated for human 1α-OHase gene and β-actin. Theses gene were amplified using primers of oligo synthesis DNA (Takara, Japan). […] Quantitation of mRNA was performed using Applied Biosystems GeneAmp 5700 sequence detection system with SYBR Green methods.
In order to study the effect of the peptide of SEQ ID No. 1 on the regulation of 1α-hydoxylase mRNA expression, CL-8 cells were grown with and without the peptide of SEQ ID No. 1 and the effects of the peptide on 1α-hydroxylase were quantified. […]
PTH and the peptide of SEQ ID NO.1 induce the expression of 1α-hydroxylase mRNA. […] Cells were grown for a further 5 hours, and RNA was harvested and expression levels of 1α-hydroxylase were determined in each sample using standard Northern blotting or RT-PCR procedures.

C=C1/C(=C\C=C2/CCC[C@]3(C)[C@@H]([C@H](C)CCCC(C)(C)O)CC[C@@H]23)C[C@@H](O)C[C@@H]1O [1α,25-dihydroxyvitamin D3]
levels of 24-hydroxylase mRNA (24-hydroxylase mRNA): significant increase

O=S(=O)(NCCNC/C=C/c1ccc(Br)cc1)c1cccc2cnccc12 [H-89]
effect of H-89 on the inducing effects of PTH on 1α-hydroxylase mRNA expression (1α-hydroxylase mRNA; H-89 10 uM with PTH 100 nmol, 5 hours (FIG. 2)): inhibited | effect of H-89 on the stimulatory effects of the peptide of SEQ ID NO.1 on 1α-hydroxylase mRNA expression (1α-hydroxylase mRNA; H-89 10 uM with peptide 100 or 500 ng/ml, 5 hours): did not inhibit

B1: parathyroid hormone (peptide, UniProt P01270 32-115, looked up)
Parathyroid hormone: SVSEIQLMHNLGKHLNSMERVEWLRKKLQDVHNFVALGAPLAPRDAGSQRPRKKEDNVLVESHEKSLGEADKADVNVLTKAKSQ
modifications: Parathyroid hormone
notes: parathyroid hormone, comparator inducer of 1α-hydroxylase mRNA acting via a PKA-dependent pathway
induction of the expression of 1α-hydroxylase mRNA (1α-hydroxylase mRNA): induce
